This is an account of results in US10336792B2, “Antimicrobial peptide dendrimers” (priority 2014, dated 2019).

Values after ≈ are worked out from the molar mass of the structure shown. Read-outs that look alike come from different tables or passages of the source. Positions of bridges follow the written chain, without caps; N, C: chain ends. Non-standard residues stand in square brackets, D forms with d. Residues, ends and D or L forms follow the SMILES beside them. Groups on a side chain read outwards from the residue. Chains are numbered I, II in the order given. Dab = NCC[C@H](N)C(=O)O Where only a bound is given, the exact number is not on record here.

Data set [1] can be described thus: 5(6)-Carboxyfluorescein leakage from lipid vesicles. The note with it: 10 mM TRIS, 107 mM NaCl, pH 7.4; peptide added at 50 s. How it is done: (§1) Preparation A thin lipid film was prepared by evaporating a solution of 25 mg Egg PC or Egg PG in 1 mL MeOH/CHCl3 1/1 on a rotary evaporator (rt) and then in vacuo overnight. The resulting film was hydrated with 1 mL buffer (50 mM CF, 10 mM TIRS, 10 mM NaCl, pH 7.4) for 30 min, subjected to freeze-thaw cycles (7×) and extrusion (15×) through a polycarbonate membrane (pore size 100 nm). Extravesicular components were removed by gel filtration (Sephadex G-50) with 10 mM TRIS, 107 mM NaCl, pH 7.4. Final conditions: ˜2.5 mM Egg PC or Egg PG; inside: 50 mM CF, 10 mM TIRS, 10 mM NaCl, pH 7.4; outside: 10 mM TRIS, 107 mM NaCl, pH 7.4.
(§2) Experiment Egg PC or Egg PG stock solutions (37.5 μL) were diluted with a buffer (10 mM TRIS, 107 mM NaCl, pH 7.4) and placed in a thermostated fluorescence cuvette (25° C.) and gently stirred (total volume in the cuvette ˜3000 μL; final lipid concentration ˜31.25 μM). CF efflux was monitored at λem 517 nm (λex 492 nm) as a function of time after addition of 20 μL of peptide dendrimer in buffer (10 mM TRIS, 107 mM NaCl, pH 7.4) with final concentrations of 1, 5, 7.5, 10, 15, 20, 25, 30 μg/mL at t=50 s and 1.2% trition X-100 (30 μL, 0.012% final concentration) at t=300 s. Fluorescence intensities were normalized to fractional emission intensity I(t) using I(t)=(It−I0)/(I∞−I0) where I0 It at peptide dendrimer addition, I∞=It at saturation of lysis.

Data set [2] concerns Escherichia coli (strain DH5α). The data set is classed as cell-based. The method, boiled down: (§3)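 Broth microdilution MIC in LB; overnight cultures diluted to OD600 0.001 and mixed 1:1 with ⅔-serially diluted samples (stock 1 mg mL^−1 in H2O), 37° C for 18-24 h. MTT (0.1%) added; MIC read by eye as lowest concentration inhibiting visible growth (yellow).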
Data set [3] has as its system Bacillus subtilis (strain BR151). It counts as cell-based. An outline of the steps: as §3
Data set [4] is described as follows: 5(6)-Carboxyfluorescein leakage from lipid vesicles. Conditions: 10 mM TRIS, 107 mM NaCl, pH 7.4; peptide added at 50 s. The protocol: as §1, §2
Bacterial membranes contain relatively large amounts of exposed anionic lipids, while the outer leaflet of the membranes of plants and animals is composed mainly of lipids with no net charge. The charge composition of such membranes can be mimicked with phospholipid vesicles. Large unilamellar vesicles (LUVs) composed of the neutral phospholipid with PC (phosphatidyl choline) or with PG (phosphatidyl glycerol) with negative charges were prepared encapsulating 5(6)-carboxyfluorescein (CF). […] The higher the concentration of MSt-112 the higher is the CF leakage (FIG. 6A). […] Overall the active AMPDs interact with the negatively charged membrane and release the CF.
This is another data set of the same source.

The next data set concerns B. subtilis BR151. The experiment in a line: Preliminary resistant development assay (daily MIC for 15 days). The note with it: bacteria from 1/2 MIC well re-tested daily. The data set is classed as cell-based, Bacillus subtilis. How it is done:
MICs of compounds for B. subtilis BR151 were determined daily for 15 days using cells from the well in which the compound concentration was one-half the MIC value (½ MIC well). […] The re-suspension was then diluted to 5×10^5 cells/ml in LB Broth (OD600=0.1 then diluted 1:100 fold to get OD600=0.001) and used to again determine the MIC of the same compound to which those cells had previously been exposed. All MIC determinations were done in duplicate.
For an initial estimation of how fast resistances could arise with AMPDs the MIC was repeated for 15 days in a row and determined each day. After obtaining the MIC value in usual broth dilution assay the bacteria (B. subtilis) from the ½ MIC well were incubated for 2-5 hours and the dilution assay was repeated. This procedure was realized for 15 days and the MICs of each day compared. In case of an increase of the MIC, it is indicative for a resistance against the AMPDs.

Data set [5] relates to Staphylococcus aureus (COL, MRSA reference strain). It counts as cell-based. The note with it: COL, reference strain. The method, boiled down:
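Broth microdilution in Müller-Hinton medium, two-fold serial dilutions from a starting 32–256 μg/mL, compounds dissolved in PBS; inoculum about 5×10^5 CFU, incubated 37° C ~18 h. MIC taken as lowest concentration with no visible growth by eye; polymyxin as reference.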

Data set [6] relates to Pseudomonas aeruginosa (strain PA01). The experiment in a line: microbe, parasite or virus in culture. The data set is classed as cell-based. Conditions: strain. The method, boiled down: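 Broth microdilution MIC against P. aeruginosa PAO1 in LB: peptides serially diluted by ⅔, bacteria added at OD600 0.001 and incubated 18–24 h at 37 °C. MTT added; MIC is the lowest concentration preventing visible growth.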

A short description of data set [7]: Proteolytic stability with human serum. It counts as in vitro ADME. Conditions: 100 μM peptide, human serum diluted with DMEM, 37 °C, up to 24 h. How it is done:
Peptides and peptide dendrimers were prepared as 200 μM stock solution in PBS. 25% Human Serum (diluted with DMEM) was centrifuged at for 15 min at 14000 rpm to remove the lipids and supernatant was collected and incubated for 15 min at 37° C. Proteolysis was initiated upon addition of 50 μL of the test peptide or peptide dendrimer to 50 μL of serum and shaking at 37° C. Final peptide concentration is 100 μM. Reaction mixtures were analyzed after 0, 1, 6, 24 h by addition of ice-cold 10% Trichloroacetic acid (TCA) to precipitate serum proteins. The supernantant was collected for each sample after centrifugation at 14000 rpm for 15 min. and evaporated with a speedvac. After dissolving the solid in 100 μL mQ-H2O they were analyzed by RP-UPLC (flow rate: 1.2 mL/min. gradient: A/D=100/0 to 0/100 in 7.5 min). Conversions of the remaining peptide and peptide dendrimers were calculated by integration of the absorbance at 214 nm by using Chromeleon software.
The peptides were mixed with human serum (previously diluted with DMEM) to a final peptide concentration of 100 μM to determine the stability of AMPDs toward proteases and incubated at 37° C. for 0, 1, 6, or 24 hours. After precipitation of proteins with TCA, the solution was analyzed by analytical RP-UPLC. […] AMPDs MSt-114, MSt-136, MSt-138, MSt-139, MSt-140 and MSt-176 were also checked for their stability. […]

Data set [8] relates to human red blood cells (hRBC). The experiment in a line: Haemolysis assay, minimal haemolytic concentration (MHC). Conditions: hRBC in PBS pH 7.4, 4 h, room temperature. The data set is classed as cell-based. The protocol:
To determine the minimal haemolytic concentration (MHC) stock solutions of 8 mg/mL of the peptide dendrimers in H2O were prepared and 50 μL were diluted serially by ½ in 50 μL PBS (pH 7.4) in 96-well plate (Cornstar or Nunc, polystyrene, untreated). Human red blood cells (hRBC) were obtained by centrifuging 1.5 mL of whole blood from friendly donors at 3000 rpm for 15 minutes. Plasma was discarded and the pellet was re-suspended in a 15 mL falcon tube up to 5 mL of PBS. The washing was repeated three times and the remaining pellet was re-suspended in 10 mL of PBS at a final hRBC concentration of 5%. The hRBC suspension (50 μL) was added to each well and the plate was incubated at room temperature for 4 hours. Minimal haemolytic concentration (MHC) end points were determined by visual inspection of the wells after the incubation period. Controls on each plate included a blank medium control (50 μl PBS+50 μl of hRBC suspension) and a haemolytic activity control (mQ-deionized water 50 μL+50 μL hRBC suspension).
MIC (minimal inhibitory concentration) and MHC (minimal haemolytic concentration, determined on human red blood cells (hRBC)) values are given in μg/mL. When no detectable haemolytic activity was observed, the last measured concentration was used for calculation of the therapeutic index. TI (therapeutic index)=MHC (μg/ml)/geometric mean of MIC (μg/ml). Larger values indicate greater antimicrobial specificity.

In data set [9] the test system is P. aeruginosa PAO1 bacterial suspension. Put plainly: Detection of peptide in the presence of bacteria. Conditions: 100 μM peptide, P. aeruginosa PAO1 in LB, 37 °C, up to 24 h. It counts as in vitro ADME, Pseudomonas aeruginosa. The protocol: Peptides and peptide dendrimers were prepared as 200 μM stock solution in H2O. A colony of bacteria was grown in LB-medium overnight at 37° C. The concentration was quantified by measuring absorbance at 600 nm and diluted to OD600=0.2. Degradation was initiated upon addition of 50 μL of the test peptide or peptide dendrimer to 50 μL of the bacterial suspension and shaking at 37° C. Final peptide concentration is 100 μM and final concentration of bacteria is OD600=0.1 (1×10^8 CFU/mL). Reaction mixtures were analyzed after 0, 1, 6, 9, 24 h by heating up to 95° C. for 5 min. followed by centrifugation for 15 min. at 14000 rpm. 50 μL of the supernantant were collected for each sample and 50 μL A were added giving a concentration of 50 μM. 5 μL of 4-Hydroxybenzoic acid (standard) were added before samples were analyzed by RP-UPLC (flow rate: 1.2 mL/min. gradient: A/D=100/0 to 0/100 in 7.5 min). Conversions of the remaining peptide and peptide dendrimers were calculated by integration of the absorbance at 214 nm by using Chromeleon software.
Bacteria were grown in LB overnight and diluted to OD600=0.2. After addition of the peptides to a concentration of 100 μM the samples were incubated for 0, 1, 6, 9, 24 hours at 37° C. After heating the suspension to 95° C. for 5 min and centrifugation the solution was subjected to UPLC and the remaining peptide was analyzed by using Chromeleon software.

With `NCC[C@H](NC(=O)[C@H](CCCCNC(=O)[C@H](Cc1c[nH]c2ccccc12)NC(=O)[C@H](CCN)NC(=O)[C@H](CCCCNC(=O)[C@H](Cc1c[nH]c2ccccc12)NC(=O)[C@@H](N)CCN)NC(=O)[C@H](Cc1c[nH]c2ccccc12)NC(=O)[C@@H](N)CCN)NC(=O)[C@H](Cc1c[nH]c2ccccc12)NC(=O)[C@H](CCN)NC(=O)[C@H](CCCCNC(=O)[C@H](Cc1c[nH]c2ccccc12)NC(=O)[C@@H](N)CCN)NC(=O)[C@H](Cc1c[nH]c2ccccc12)NC(=O)[C@@H](N)CCN)C(=O)N[C@@H](Cc1c[nH]c2ccccc12)C(N)=O` [MSt-176, (DabW)4(KDabW)2(KDabW)] (I: H-[Dab]WK([Trp-Dab])[Dab]WK[Dab]W-NH2 / II: H-[Dab]WK([Trp-Dab])[Dab]W; amide I:6-II:C; N-terminus assumed), the “CF leakage from phosphatidylcholine LUVs” value in data set [1] was “induced CF release”. Besides, the “MIC E. coli DH5α” value in [2] (DH5α) came to 3 µg/mL (≈ 1.25 µM). In data set [3] (strain BR151), the “MIC B. subtilis BR151” value turned out to be 1 µg/mL (≈ 0.416 µM). The “CF leakage from phosphatidylglycerol LUVs” value in data set [4] is “immediate leakage of CF”. In the data set on B. subtilis BR151, the “change of MIC over 15 days (resistance)” value is “did not have a significant change of their MIC values over 15 days”. Moreover, the “MIC S. aureus (COL, MRSA reference strain)” value in data set [5] was “below 20 μg/mL”. Further, the “MIC P. aeruginosa PAO1” value in data set [6] was found to be 1 µg/mL (≈ 0.416 µM).

On to `CC(C)C[C@H](NC(=O)[C@H](CC(C)C)NC(=O)[C@H](CCCCN)NC(=O)[C@H](C)NC(=O)[C@H](CC(C)C)NC(=O)[C@H](CCCCN)NC(=O)[C@H](CCCCN)NC(=O)[C@H](CC(C)C)NC(=O)[C@H](C)NC(=O)[C@H](CCCCN)NC(=O)[C@H](CCCCN)NC(=O)[C@H](Cc1ccc(O)cc1)NC(=O)[C@@H](N)CCCCN)C(N)=O` [RHe-9, (KYKKALKKLAKLL), reference compound] (H-KYKKALKKLAKLL-NH2), for which, in data set [7], the “Stability in human serum (remaining peptide signal, RP-UPLC)” value is “completely disappeared”. In addition, the “MHC (minimal haemolytic concentration)” value in [8] was “not haemolytic”. The “MIC E. coli DH5α” value in data set [2] (LB medium) is below 1 µg/mL. The “MIC B. subtilis BR151” value in [3] (LB medium) amounted to 4 µg/mL (≈ 2.59 µM). Moreover, the “Stability in bacterial suspension (remaining peptide, UPLC)” value in data set [9] is reported as “not detectable after 9 hours”.
